# Source: article PMC12136037, “Type II kinase inhibitors that target Parkinson’s disease–associated LRRK2” (Science Advances, 2025)
# Values joined by “and” are separate entries in the source; they are usually repeats but may differ in a detail not shown here. Identical values can stand only once. Like-named read-outs stand apart in the source and are kept apart here.
# Legend:
# Assay in all cases: nanoBRET off-target validation
# Format in all cases: cell-based
# JNK2 = biological target: T1, JNK2 (Homo sapiens, UniProt P45984)
# T1 construct: host or cells: HEK293T (ATCC CRL-3216)
# Method: (§1) The assay was performed as described previously ([61]). In brief, full-length kinases as listed in table S6 were obtained as plasmids cloned in frame with terminal NanoLuc-fusion (gift from Promega; table S6). […] Serially diluted inhibitor and corresponding tracer as listed in table S6 at the Tracer KD concentration taken from TracerDB (tracerdb.org) ([62]) were pipetted into white 384-well plates (Greiner, 781207) using an ECHO acoustic dispenser (Labcyte). The corresponding protein-transfected cells were added and reseeded at a density of 2 × 10^5 cells/ml after trypsinization and resuspending in Opti-MEM without phenol red (Life Technologies). The system was allowed to equilibrate for 3 hours at 37°C/5% CO2 before bioluminescence resonance energy transfer (BRET) measurements. To measure BRET, NanoBRET NanoGlo Substrate + extracellular NanoLuc Inhibitor (Promega, N2540) was added as per the manufacturer’s protocol, and filtered luminescence was measured on a PHERAstar plate reader (BMG Labtech) equipped with a luminescence filter pair [450-nm BP filter (donor) and 610-nm LP filter (acceptor)]. […] (For step-by-step protocol, see www.eubopen.org/sites/www.eubopen.org/files/attachments/2021/NanoBRET-IC50_v1_0.pdf.)
# STK17B = biological target: T2, STK17B (Homo sapiens, UniProt O94768)
# T2 construct: host or cells: HEK293T (ATCC CRL-3216)
# T2 sequence (O94768 1-372): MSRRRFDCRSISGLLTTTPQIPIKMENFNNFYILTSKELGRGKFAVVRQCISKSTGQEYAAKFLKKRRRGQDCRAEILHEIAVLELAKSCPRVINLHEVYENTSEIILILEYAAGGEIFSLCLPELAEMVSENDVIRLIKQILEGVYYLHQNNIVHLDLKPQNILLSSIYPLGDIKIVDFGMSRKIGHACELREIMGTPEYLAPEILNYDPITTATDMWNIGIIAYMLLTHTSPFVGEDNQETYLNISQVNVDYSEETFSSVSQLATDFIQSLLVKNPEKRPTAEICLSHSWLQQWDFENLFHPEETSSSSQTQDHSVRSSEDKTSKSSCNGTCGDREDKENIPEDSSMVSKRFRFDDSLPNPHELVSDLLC
# Method: as §1
# CDKL1 = biological target: T3, CDKL1 (Homo sapiens, UniProt Q00532)
# T3 construct: host or cells: HEK293T (ATCC CRL-3216)
# Method: as §1
# T3 sequence (Q00532 whole entry): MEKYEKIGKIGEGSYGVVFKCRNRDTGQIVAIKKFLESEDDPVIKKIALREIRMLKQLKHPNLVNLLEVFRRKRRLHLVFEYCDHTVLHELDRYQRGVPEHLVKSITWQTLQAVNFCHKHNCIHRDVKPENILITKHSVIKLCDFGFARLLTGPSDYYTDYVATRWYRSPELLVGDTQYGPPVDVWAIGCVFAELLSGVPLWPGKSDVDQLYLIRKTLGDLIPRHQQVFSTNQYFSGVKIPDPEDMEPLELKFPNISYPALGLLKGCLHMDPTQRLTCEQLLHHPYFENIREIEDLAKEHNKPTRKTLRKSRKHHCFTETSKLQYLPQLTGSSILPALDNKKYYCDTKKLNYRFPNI
# T1 sequence (P45984 whole entry): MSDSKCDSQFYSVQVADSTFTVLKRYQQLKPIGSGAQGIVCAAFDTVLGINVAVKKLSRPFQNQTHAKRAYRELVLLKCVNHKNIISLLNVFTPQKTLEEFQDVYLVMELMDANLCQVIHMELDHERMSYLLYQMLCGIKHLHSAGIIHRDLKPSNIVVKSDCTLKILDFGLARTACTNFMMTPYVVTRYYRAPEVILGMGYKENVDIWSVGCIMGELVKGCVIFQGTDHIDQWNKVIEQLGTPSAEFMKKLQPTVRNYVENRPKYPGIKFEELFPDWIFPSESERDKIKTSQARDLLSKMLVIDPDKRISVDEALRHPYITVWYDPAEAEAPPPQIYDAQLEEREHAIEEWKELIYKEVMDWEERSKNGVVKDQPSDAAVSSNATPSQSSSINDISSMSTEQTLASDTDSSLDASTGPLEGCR
compound,measurement,setting,value
CCSc1nc(NC)c2c(-c3cccc(NC(=O)Nc4cc(C(C)(C)C)nn4-c4ccc(C)cc4)c3)c[nH]c2n1 [Compound 32],nanoBRET response normalized to 0% (no tracer) and 100% (no inhibitor) control,"JNK2; JNK2, inhibitor 8 nM, two replicates, listed as RN341, 0.008 µM",97.2218%
same,remaining activity at 0.008 µM,"JNK2; JNK2, inhibitor 8 nM, two replicates, read-out: nanoBRET response normalized to 0% (no tracer) and 100% (no inhibitor) control",103%
same,nanoBRET response normalized to 0% (no tracer) and 100% (no inhibitor) control,"JNK2; JNK2, inhibitor 16 nM, two replicates, listed as RN341, 0.016 µM",96.1223%
same,remaining activity at 0.016 µM,"JNK2; JNK2, inhibitor 16 nM, two replicates, read-out: nanoBRET response normalized to 0% (no tracer) and 100% (no inhibitor) control",95.8%
same,nanoBRET response normalized to 0% (no tracer) and 100% (no inhibitor) control,"JNK2; JNK2, inhibitor 50 nM, two replicates, listed as RN341, 0.05 µM",96.724%
same,remaining activity at 0.05 µM,"JNK2; JNK2, inhibitor 50 nM, two replicates, read-out: nanoBRET response normalized to 0% (no tracer) and 100% (no inhibitor) control",91.7%
same,nanoBRET response normalized to 0% (no tracer) and 100% (no inhibitor) control,"JNK2; JNK2, inhibitor 250 nM, two replicates, listed as RN341, […]",80.9747%
same,remaining activity at […],"JNK2; JNK2, inhibitor 250 nM, two replicates, read-out: nanoBRET response normalized to 0% (no tracer) and 100% (no inhibitor) control",78.7%
same,nanoBRET response normalized to 0% (no tracer) and 100% (no inhibitor) control,"JNK2; JNK2, inhibitor 500 nM, two replicates, listed as RN341, 0.5 µM",61.7006%
same,remaining activity at 0.5 µM,"JNK2; JNK2, inhibitor 500 nM, two replicates, read-out: nanoBRET response normalized to 0% (no tracer) and 100% (no inhibitor) control",65.3%
same,nanoBRET response normalized to 0% (no tracer) and 100% (no inhibitor) control,"JNK2; JNK2, inhibitor 2500 nM, two replicates, listed as RN341, […]",73.4181%
same,remaining activity at […],"JNK2; JNK2, inhibitor 2500 nM, two replicates, read-out: nanoBRET response normalized to 0% (no tracer) and 100% (no inhibitor) control",71.9%
same,nanoBRET response normalized to 0% (no tracer) and 100% (no inhibitor) control,"JNK2; JNK2, inhibitor 5000 nM, two replicates, listed as RN341, 5 µM",50.6395%
same,remaining activity at 5 µM,"JNK2; JNK2, inhibitor 5000 nM, two replicates, read-out: nanoBRET response normalized to 0% (no tracer) and 100% (no inhibitor) control",57.2%
same,nanoBRET response normalized to 0% (no tracer) and 100% (no inhibitor) control,"JNK2; JNK2, inhibitor 25000 nM, two replicates, listed as RN341, 25 µM",6.955%
same,remaining activity at 25 µM,"JNK2; JNK2, inhibitor 25000 nM, two replicates, read-out: nanoBRET response normalized to 0% (no tracer) and 100% (no inhibitor) control",9.64%
same,EC50,"JNK2; in cellulo nanoBRET, 293T cells",< 5 µM and 2.7 µM
same,EC50,STK17B,≥ 20 µM
same,nanoBRET response normalized to 0% (no tracer) and 100% (no inhibitor) control,"STK17B; STK17B, inhibitor 8 nM, two replicates, listed as RN341, 0.008 µM",97.0874%
same,NanoBRET tracer signal (% of no-inhibitor control) at 0.008 µM,"STK17B; STK17B, inhibitor 8 nM, two replicates, read-out: nanoBRET response normalized to 0% (no tracer) and 100% (no inhibitor) control",97.6%
same,nanoBRET response normalized to 0% (no tracer) and 100% (no inhibitor) control,"STK17B; STK17B, inhibitor 16 nM, two replicates, listed as RN341, 0.016 µM",82.8095%
same,NanoBRET tracer signal (% of no-inhibitor control) at 0.016 µM,"STK17B; STK17B, inhibitor 16 nM, two replicates, read-out: nanoBRET response normalized to 0% (no tracer) and 100% (no inhibitor) control",94.7%
same,nanoBRET response normalized to 0% (no tracer) and 100% (no inhibitor) control,"STK17B; STK17B, inhibitor 50 nM, two replicates, listed as RN341, 0.05 µM",109.03%
same,NanoBRET tracer signal (% of no-inhibitor control) at 0.05 µM,"STK17B; STK17B, inhibitor 50 nM, two replicates, read-out: nanoBRET response normalized to 0% (no tracer) and 100% (no inhibitor) control",112%
same,nanoBRET response normalized to 0% (no tracer) and 100% (no inhibitor) control,"STK17B; STK17B, inhibitor 250 nM, two replicates, listed as RN341, […]",93.8885%
same,NanoBRET tracer signal (% of no-inhibitor control) at […],"STK17B; STK17B, inhibitor 250 nM, two replicates, read-out: nanoBRET response normalized to 0% (no tracer) and 100% (no inhibitor) control",111%
same,nanoBRET response normalized to 0% (no tracer) and 100% (no inhibitor) control,"STK17B; STK17B, inhibitor 500 nM, two replicates, listed as RN341, 0.5 µM",103.232% and 77.6568%
same,NanoBRET tracer signal (% of no-inhibitor control) at […],"STK17B; STK17B, inhibitor 2500 nM, two replicates, read-out: nanoBRET response normalized to 0% (no tracer) and 100% (no inhibitor) control",122% and 101%
same,nanoBRET response normalized to 0% (no tracer) and 100% (no inhibitor) control,"STK17B; STK17B, inhibitor 5000 nM, two replicates, listed as RN341, 5 µM",104.626% and 83.1368%
same,nanoBRET response normalized to 0% (no tracer) and 100% (no inhibitor) control,"STK17B; STK17B, inhibitor 25000 nM, two replicates, listed as RN341, 25 µM",75.7774%
same,NanoBRET tracer signal (% of no-inhibitor control) at 25 µM,"STK17B; STK17B, inhibitor 25000 nM, two replicates, read-out: nanoBRET response normalized to 0% (no tracer) and 100% (no inhibitor) control",80.3%
same,EC50,CDKL1,17 µM
same,remaining activity at 0.008 µM,"CDKL1; CDKL1, inhibitor 8 nM, two replicates, read-out: nanoBRET response normalized to 0% (no tracer) and 100% (no inhibitor) control",102% and 110%
same,nanoBRET response normalized to 0% (no tracer) and 100% (no inhibitor) control,"CDKL1; CDKL1, inhibitor 16 nM, two replicates, listed as RN341, 0.016 µM",102.251%
same,remaining activity at 0.016 µM,"CDKL1; CDKL1, inhibitor 16 nM, two replicates, read-out: nanoBRET response normalized to 0% (no tracer) and 100% (no inhibitor) control",96.8%
same,remaining activity at 0.05 µM,"CDKL1; CDKL1, inhibitor 50 nM, two replicates, read-out: nanoBRET response normalized to 0% (no tracer) and 100% (no inhibitor) control",106% and 102%
same,nanoBRET response normalized to 0% (no tracer) and 100% (no inhibitor) control,"CDKL1; CDKL1, inhibitor 250 nM, two replicates, listed as RN341, […]",106.285%
same,remaining activity at […],"CDKL1; CDKL1, inhibitor 250 nM, two replicates, read-out: nanoBRET response normalized to 0% (no tracer) and 100% (no inhibitor) control",116%
same,nanoBRET response normalized to 0% (no tracer) and 100% (no inhibitor) control,"CDKL1; CDKL1, inhibitor 500 nM, two replicates, listed as RN341, 0.5 µM",96.8094%
